Our source for the EC50 values is patent publication US20260209219A1, “SUBSTITUTED TETRAHYDROPYRROLO-PYRIDINONE COMPOUNDS AND THEIR USE IN TREATING MEDICAL CONDITIONS” (Karuna Therapeutics, Inc., priority 2022, published 2026).

Bounds are passed on as bounds.

The target in one assay is T1, hM4 receptors (Homo sapiens, UniProt P08173).
T1 construct: expressed in transfected cells; host or cells: CHO cells
T1 sequence (P08173 1-479): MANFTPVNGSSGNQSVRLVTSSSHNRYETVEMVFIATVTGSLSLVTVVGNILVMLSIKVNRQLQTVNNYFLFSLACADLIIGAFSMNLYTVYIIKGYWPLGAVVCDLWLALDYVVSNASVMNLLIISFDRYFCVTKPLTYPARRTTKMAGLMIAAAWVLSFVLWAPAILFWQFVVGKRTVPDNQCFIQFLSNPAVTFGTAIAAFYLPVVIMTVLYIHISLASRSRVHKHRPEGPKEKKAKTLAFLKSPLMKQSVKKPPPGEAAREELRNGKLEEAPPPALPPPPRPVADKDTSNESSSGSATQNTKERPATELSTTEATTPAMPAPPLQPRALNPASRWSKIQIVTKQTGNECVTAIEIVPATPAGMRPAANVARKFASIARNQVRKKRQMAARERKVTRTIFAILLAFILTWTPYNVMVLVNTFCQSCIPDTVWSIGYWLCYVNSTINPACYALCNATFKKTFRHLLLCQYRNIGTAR
Nature of the assay: Human M4 PAM pERK assay. To be noted: CHO cells expressing hM4; with EC20 of acetylcholine (10 nM final). Type of assay: cell-based. The protocol:
(§1) Chinese hamster ovary (CHO) cells expressing either hM4 or rM4 receptors were frozen in assay ready vials (5×10^6 cells/vial) after bulking-up in culture. The day before an assay, vial(s) were thawed and cells seeded in 384 well white proxiplates at 1000/well for hM4 cells and at 2000/well for rM4 cells, in 10 μL of growth media (Hams/F12 with glutamax and 10% FCS) and incubated overnight at 37° C./5% CO2.
(§2) On the following morning, the growth media was removed by ‘flicking out’ over a bin, patting the inverted plate onto tissue, and then replacing with 10 μL of wash media (Hams/F12 with glutamax and 8 mM HEPES, NB: serum free). Then, the wash media was removed in the same way and replaced with 8 μL/well of the serum free media. Plates were then re-incubated for a further 4 hours at 37° C./5% CO2.
(§3) Compounds for testing were solubilized to 10 mM in DMSO and compound addition plates, consisting of ten-point concentration response curves (CRC) in duplicate points (10 μM top concentration, ½ log dilution series), were prepared by acoustic dispensing and the compound management group.
(§4) After the 4-hour incubation in serum free media, a 4 μL aliquot of the 3× compound solution containing an EC20 of acetylcholine (10 nM final concentration) was added to the cell plate using a 384 well plate to plate transfer. Then, the plate lid was replaced, and the cells incubated for 5 mins at 37° C./5% CO2. Following this final incubation, all cellular processes were stopped by the addition of 4 μL/well of lysis and blocking buffer and plates were incubated for 30 minutes at RT on an orbital shaker (gentle setting). Then, a final addition of 4 μL/well of antibody detection mix, containing both the Europium-Cryptate (donor) and d2 (acceptor) tagged detection components, was added followed by a further 2-hour incubation at RT, and then the plate was read using a TR-FRET (time resolved fluorescence resonance energy transfer) based protocol.

The target in the next assay is T2, rM4 receptors (Rattus norvegicus, UniProt P08485).
T2 construct: expressed in transfected cells; host or cells: CHO cells
T2 sequence (P08485 1-478): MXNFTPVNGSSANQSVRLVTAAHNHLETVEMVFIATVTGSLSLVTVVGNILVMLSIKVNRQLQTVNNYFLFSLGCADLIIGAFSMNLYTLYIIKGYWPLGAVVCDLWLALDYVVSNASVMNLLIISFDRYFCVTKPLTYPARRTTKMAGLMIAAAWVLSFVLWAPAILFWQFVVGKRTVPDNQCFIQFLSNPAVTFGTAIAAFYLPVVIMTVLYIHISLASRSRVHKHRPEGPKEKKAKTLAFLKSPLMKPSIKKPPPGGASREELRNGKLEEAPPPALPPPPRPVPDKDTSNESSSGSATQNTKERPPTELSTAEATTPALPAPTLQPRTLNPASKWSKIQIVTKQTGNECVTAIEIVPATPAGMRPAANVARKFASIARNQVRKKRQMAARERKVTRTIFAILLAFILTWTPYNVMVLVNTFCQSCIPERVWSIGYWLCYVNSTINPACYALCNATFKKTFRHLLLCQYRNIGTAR
Nature of the assay: Rat M4 PAM pERK assay. Type of assay: cell-based. Particulars: CHO cells expressing rM4; with EC20 of acetylcholine (10 nM final). The protocol:
as §1, §2, §3, §4

A word on the EC50: it is the concentration at which the effect is half-maximal. High values mean lower potency in that assay, low ones higher potency in that assay. As to `Cc1cc(=O)n(C)c2c1CN(C(=O)CC1CC1c1ccnc(C(F)(F)F)c1)C2` (single isomer, unassigned) [Compound I-1, 1,4-Dimethyl-6-[trans-(2-(2-(2-(trifluoromethyl)pyridin-4-yl)cyclopropyl)]acetyl)-1,5,6,7-tetrahydro-2H-pyrrolo[3,4-b]pyridin-2-one], the EC50 on hM4 receptors is more than 2000 nM.
For the compound `Cc1cc(=O)n(C)c2c1CN(C(=O)CC1CC1c1ccnc(C(F)(F)F)c1)C2` (single isomer, unassigned) [Compound I-2], the results for the EC50 on hM4 receptors and on rM4 receptors were less than 100 nM and 500 to 2000 nM, respectively.
The like results for `Cc1cc(=O)n(C)c2c1CN(C(=O)CC1CC1c1ccc(S(=O)(=O)C(F)(F)F)cc1)C2` (single isomer, unassigned) [Compound I-8] were, in that order, more than 2000 nM and more than 2000 nM.
With `Cc1cc(=O)n(C)c2c1CN(C(=O)CC1CC1c1ccc(S(=O)(=O)C(F)(F)F)cc1)C2` (single isomer, unassigned) [Compound I-9], the EC50 at hM4 receptors and on rM4 receptors was 100 to 500 nM throughout.
In the case of `Cc1cc(=O)n(C)c2c1CN(C(=O)CC1CC1c1cccc(C3COC3)c1)C2` (single isomer, unassigned) [Compound I-14], the EC50 on hM4 receptors and at rM4 receptors was 100 to 500 nM throughout.
`Cc1cc(=O)n(C)c2c1CN(C(=O)CC1CC1c1ccc(C3COC3)cc1)C2` (single isomer, unassigned) [Compound I-16]: the EC50 at hM4 receptors and on rM4 receptors was more than 2000 nM throughout.
For `Cc1cc(=O)n(C)c2c1CN(C(=O)CC1CC1c1ccc(C3COC3)cc1)C2` (single isomer, unassigned) [Compound I-17], the concentration giving a half-maximal response (EC50) was less than 100 nM at hM4 receptors and 100 to 500 nM on rM4 receptors.
On the same counts, the results for `Cc1c2c(n(C)c(=O)c1C)CN(C(=O)CC1CC1c1ccc(C(F)(F)F)cc1)C2` (single isomer, unassigned) [Compound I-19] are more than 2000 nM and more than 2000 nM.
For `Cc1c2c(n(C)c(=O)c1C)CN(C(=O)CC1CC1c1ccc(C(F)(F)F)cc1)C2` (single isomer, unassigned) [Compound I-20], the EC50 at hM4 receptors and at rM4 receptors was 100 to 500 nM each time.
For `Cc1c2c(n(C)c(=O)c1F)CN(C(=O)CC1CC1c1cc(F)cc(F)c1)C2` (single isomer, unassigned) [Compound I-28], the EC50 at hM4 receptors and at rM4 receptors was less than 100 nM throughout.
Consider `COCCc1ccc(C2CC2CC(=O)N2Cc3c(C)cc(=O)n(C)c3C2)cc1` (centres unmarked) [Compound I-11], for which the EC50 on hM4 receptors fell in the range of 100 to 500 nM; at rM4 receptors, 500 to 2000 nM.
As for `Cc1cc(=O)n(C)c2c1CN(C(=O)CC1CC1c1ccc(C3COC3)cc1)C2` (centres unmarked) [Compound I-15], the 50% effective concentration (EC50) at hM4 receptors was in the range of 100 to 500 nM; at rM4 receptors, 500 to 2000 nM.
